PubChem BioAssay (NCI)
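Tested at 5 concentrations; 48 h exposure; 96-well plates; endpoints linearly interpolated, else capped at highest concentration. TGI denotes the concentration required for complete inhibition of growth.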

Assays:
Test in all cases: NCI-60 cell line screen, 48 h
[1] = test system: 786-0 renal
[2] = test system: A498 renal
[3] = test system: A549 NSCLC
[4] = test system: ACHN renal
[5] = test system: BT-549 breast
[6] = test system: CAKI-1 renal
[7] = test system: CCRF-CEM leukemia
[8] = test system: COLO 205 colon
[9] = test system: DU-145 prostate
[10] = test system: EKVX NSCLC
[11] = test system: HCC-2998 colon
[12] = test system: HCT-15 colon
[13] = test system: HOP-62 NSCLC
[14] = test system: HOP-92 NSCLC
[15] = test system: HS 578T breast
[16] = test system: HT29 colon
[17] = test system: IGROV1 ovarian
[18] = test system: KM12 colon
[19] = test system: LOX IMVI melanoma
[20] = test system: M14 melanoma
[21] = test system: MALME-3M melanoma
[22] = test system: MCF7 breast
[23] = test system: MDA-MB-231 breast
[24] = test system: MDA-MB-435
[25] = test system: MDA-N
[26] = test system: MOLT-4 leukemia
[27] = test system: NCI-H226 lung
[28] = test system: NCI-H23 lung
[29] = test system: NCI-H460 lung
[30] = test system: NCI-H522 lung
[31] = test system: NCI/ADR-RES ovarian
[32] = test system: OVCAR-3 ovarian
[33] = test system: OVCAR-4 ovarian
[34] = test system: OVCAR-5 ovarian
[35] = test system: OVCAR-8 ovarian
[36] = test system: PC-3 prostate
[37] = test system: RPMI-8226 leukemia
[38] = test system: RXF 393 renal
[39] = test system: SF-268 CNS
[40] = test system: SF-295 CNS
[41] = test system: SF-539 CNS
[42] = test system: SK-MEL-2 melanoma
[43] = test system: SK-MEL-28 melanoma
[44] = test system: SK-MEL-5 melanoma
[45] = test system: SK-OV-3 ovarian
[46] = test system: SN12C renal
[47] = test system: SNB-19 CNS
[48] = test system: SNB-75 CNS
[49] = test system: SW-620 colon
[50] = test system: T-47D breast
[51] = test system: TK-10 renal
[52] = test system: U251 CNS
[53] = test system: UACC-257 melanoma
[54] = test system: UACC-62 melanoma

COCCN(CCNC(=O)c1cccc2c(N)c3cccc(C)c3nc12)CCOC
TGI [1]: 8.62 µM | TGI [2]: 14.6 µM | TGI [3]: 8.48 µM | TGI [4]: 13.5 µM | TGI [5]: 20.3 µM | TGI [6]: 4.49 µM | TGI [7]: > 26.2 µM | TGI [8]: 2.13 µM | TGI [9]: 9.64 µM | TGI [10]: 7.7 µM | TGI [11]: 1.72 µM | TGI [12]: 13 µM | TGI [13]: 11.3 µM | TGI [14]: > 57.7 µM | TGI [15]: 9.86 µM | TGI [16]: 10.2 µM | TGI [17]: 7.25 µM | TGI [18]: 6.93 µM | TGI [19]: 3.27 µM | TGI [20]: 2.7 µM | TGI [21]: 1.96 µM | TGI [22]: 23.3 µM | TGI [23]: 5.43 µM | TGI [24]: 11 µM | TGI [25]: 2.75 µM | TGI [26]: 2.38 µM | TGI [27]: 6.15 µM | TGI [28]: 3.53 µM | TGI [29]: 7.11 µM | TGI [30]: 0.894 µM | TGI [31]: 33.7 µM | TGI [32]: 15.2 µM | TGI [33]: 6.38 µM | TGI [34]: 15.6 µM | TGI [35]: 19 µM | TGI [36]: 8.9 µM | TGI [37]: 5.91 µM | TGI [38]: 5.96 µM | TGI [39]: 2.3 µM | TGI [40]: > 22.9 µM | TGI [41]: 4.64 µM | TGI [42]: 18.7 µM | TGI [43]: > 41.1 µM | TGI [44]: 2.65 µM | TGI [45]: 42.1 µM | TGI [46]: 6.54 µM | TGI [47]: 22.3 µM | TGI [48]: 4.75 µM | TGI [49]: > 50.2 µM | TGI [50]: 27.5 µM | TGI [51]: 16.6 µM | TGI [52]: > 63.6 µM | TGI [53]: 19.9 µM | TGI [54]: 10.6 µM
